This note sets out measurements from ChEMBL document CHEMBL5625226, “Synthesis, computational and experimental pharmacological studies for (thio)ether-triazine 5-HT6R ligands with noticeable action on AChE/BChE and chalcogen-dependent intrinsic activity in search for new class of drugs against Alzheimer's disease” (Eur J Med Chem, 2023).

In one assay the target is Acetylcholinesterase (Electrophorus electricus, UniProt O42275).
In a further assay the test system is SH-SY5Y. As to the kind of experiment: cells. The following applies: Homo sapiens, 1 h.
The next assay relates to HepG2. Briefly: cells. The conditions noted are these: Homo sapiens, HepG2, 1 h.
The target in the next assay is Cholinesterase (Equus caballus, UniProt P81908).
For the next assay, the target named is D(2) dopamine receptor (Homo sapiens, UniProt P14416). Briefly: biochemical.
Assay [1] has as its target T1, 5-hydroxytryptamine receptor 6 (Homo sapiens, UniProt P50406). Briefly: biochemical.
Assay [2] concerns the target 5-hydroxytryptamine receptor 7 (Homo sapiens, UniProt P34969). As to the kind of experiment: biochemical.
Assay [3] addresses 5-hydroxytryptamine receptor 2A (Homo sapiens, UniProt P28223). As to the kind of experiment: biochemical.
The target in assay [4] is T1, 5-hydroxytryptamine receptor 6. The following applies: 1321N1, filed as antagonist, dose 10.0 mM, time 30.0 min.
The nature of a further assay: cells. The conditions noted are these: Rattus norvegicus, Whole blood cell, 0.05 h.

D(2) dopamine receptor, sequence (P14416 whole entry): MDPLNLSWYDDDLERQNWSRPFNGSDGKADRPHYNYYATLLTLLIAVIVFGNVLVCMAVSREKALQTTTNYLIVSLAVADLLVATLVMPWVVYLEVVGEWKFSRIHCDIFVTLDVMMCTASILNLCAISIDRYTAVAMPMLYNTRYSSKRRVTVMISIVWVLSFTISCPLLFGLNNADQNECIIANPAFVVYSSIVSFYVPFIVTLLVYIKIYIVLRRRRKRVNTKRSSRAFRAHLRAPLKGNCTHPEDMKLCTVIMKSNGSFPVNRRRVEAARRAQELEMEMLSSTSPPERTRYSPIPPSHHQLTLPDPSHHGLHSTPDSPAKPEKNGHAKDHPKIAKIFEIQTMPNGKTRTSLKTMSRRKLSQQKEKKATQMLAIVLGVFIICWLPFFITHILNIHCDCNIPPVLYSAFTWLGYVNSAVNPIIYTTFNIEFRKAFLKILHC
T1 sequence (P50406 whole entry): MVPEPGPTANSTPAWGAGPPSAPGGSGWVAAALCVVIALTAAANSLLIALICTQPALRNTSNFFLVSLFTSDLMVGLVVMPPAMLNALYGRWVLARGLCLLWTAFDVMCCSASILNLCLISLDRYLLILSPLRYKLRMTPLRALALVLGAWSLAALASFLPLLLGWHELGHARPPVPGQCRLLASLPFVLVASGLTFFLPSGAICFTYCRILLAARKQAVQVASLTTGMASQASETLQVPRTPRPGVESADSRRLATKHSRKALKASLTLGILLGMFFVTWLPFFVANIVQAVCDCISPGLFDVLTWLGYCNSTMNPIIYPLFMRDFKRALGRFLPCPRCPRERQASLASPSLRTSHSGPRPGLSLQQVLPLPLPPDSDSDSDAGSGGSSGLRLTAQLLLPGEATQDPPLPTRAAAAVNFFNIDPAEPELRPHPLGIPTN
5-hydroxytryptamine receptor 2A, sequence (P28223 whole entry): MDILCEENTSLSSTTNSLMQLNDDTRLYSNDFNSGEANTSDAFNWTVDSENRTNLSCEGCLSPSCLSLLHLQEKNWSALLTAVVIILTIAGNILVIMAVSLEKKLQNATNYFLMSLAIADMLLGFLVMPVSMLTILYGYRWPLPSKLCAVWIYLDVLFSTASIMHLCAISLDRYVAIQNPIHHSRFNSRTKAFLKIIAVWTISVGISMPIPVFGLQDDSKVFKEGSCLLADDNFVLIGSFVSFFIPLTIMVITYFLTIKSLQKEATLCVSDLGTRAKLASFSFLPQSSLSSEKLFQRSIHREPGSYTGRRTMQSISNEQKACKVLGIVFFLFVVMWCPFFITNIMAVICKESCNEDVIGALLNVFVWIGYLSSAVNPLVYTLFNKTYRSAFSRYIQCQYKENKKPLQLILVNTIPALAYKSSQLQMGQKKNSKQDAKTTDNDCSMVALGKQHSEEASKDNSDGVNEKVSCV
Cholinesterase, sequence (P81908 whole entry): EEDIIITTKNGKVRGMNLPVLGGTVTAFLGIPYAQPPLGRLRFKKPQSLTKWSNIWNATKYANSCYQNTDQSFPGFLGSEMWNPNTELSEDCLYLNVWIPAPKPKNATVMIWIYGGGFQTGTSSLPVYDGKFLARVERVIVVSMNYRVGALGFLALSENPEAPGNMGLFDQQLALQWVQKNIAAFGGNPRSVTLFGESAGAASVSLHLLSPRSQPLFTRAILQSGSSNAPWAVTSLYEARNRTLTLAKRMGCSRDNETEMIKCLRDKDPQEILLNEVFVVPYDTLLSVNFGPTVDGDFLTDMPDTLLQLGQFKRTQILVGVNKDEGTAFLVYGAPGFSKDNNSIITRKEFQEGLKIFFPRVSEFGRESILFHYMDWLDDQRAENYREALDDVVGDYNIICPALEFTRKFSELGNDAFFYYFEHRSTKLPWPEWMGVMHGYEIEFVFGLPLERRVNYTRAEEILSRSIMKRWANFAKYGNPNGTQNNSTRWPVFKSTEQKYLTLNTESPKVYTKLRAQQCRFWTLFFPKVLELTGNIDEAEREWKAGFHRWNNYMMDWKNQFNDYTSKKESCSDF
5-hydroxytryptamine receptor 7, sequence (P34969 whole entry): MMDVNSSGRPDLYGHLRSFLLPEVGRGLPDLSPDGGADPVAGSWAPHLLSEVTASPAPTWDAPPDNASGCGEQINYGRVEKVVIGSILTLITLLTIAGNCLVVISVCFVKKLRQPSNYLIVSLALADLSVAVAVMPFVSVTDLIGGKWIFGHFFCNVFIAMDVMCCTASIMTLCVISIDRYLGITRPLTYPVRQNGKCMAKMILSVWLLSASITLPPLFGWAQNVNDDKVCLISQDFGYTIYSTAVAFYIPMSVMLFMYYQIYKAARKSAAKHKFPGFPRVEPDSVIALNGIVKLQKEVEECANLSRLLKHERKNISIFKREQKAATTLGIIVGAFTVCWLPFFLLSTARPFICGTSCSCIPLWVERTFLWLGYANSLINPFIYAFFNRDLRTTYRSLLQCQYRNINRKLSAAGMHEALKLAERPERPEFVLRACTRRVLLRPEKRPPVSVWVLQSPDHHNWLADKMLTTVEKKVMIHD
Acetylcholinesterase, sequence (O42275 whole entry): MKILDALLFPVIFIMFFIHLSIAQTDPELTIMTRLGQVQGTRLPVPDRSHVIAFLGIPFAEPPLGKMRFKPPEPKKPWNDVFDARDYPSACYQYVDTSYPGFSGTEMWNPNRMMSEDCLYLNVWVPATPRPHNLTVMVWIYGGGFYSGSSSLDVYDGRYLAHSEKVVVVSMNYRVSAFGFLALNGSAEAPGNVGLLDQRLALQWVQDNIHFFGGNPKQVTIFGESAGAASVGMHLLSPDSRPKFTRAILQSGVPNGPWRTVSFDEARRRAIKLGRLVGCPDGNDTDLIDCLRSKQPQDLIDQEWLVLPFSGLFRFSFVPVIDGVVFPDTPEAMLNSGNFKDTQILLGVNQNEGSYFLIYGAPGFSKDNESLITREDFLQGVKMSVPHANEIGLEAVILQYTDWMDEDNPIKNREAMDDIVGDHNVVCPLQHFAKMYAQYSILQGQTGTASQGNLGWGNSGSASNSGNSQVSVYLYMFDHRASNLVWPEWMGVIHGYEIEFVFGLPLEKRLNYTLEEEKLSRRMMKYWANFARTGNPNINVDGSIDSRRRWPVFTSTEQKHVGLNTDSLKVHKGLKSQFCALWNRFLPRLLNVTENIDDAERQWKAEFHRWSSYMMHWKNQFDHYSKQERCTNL
Description for Acetylcholinesterase: Inhibition of electric eel AChE using acetylthiocholine iodide as substrate preincubated with compounds for 20 mins followed by substrate addition and measured after 5 mins by Ellman's method
Description for HepG2: Neuroprotective activity against H202 induced oxidative stress in human HepG2 cells measured after 1 hr by DCFH-DA staining based analysis
Description for SH-SY5Y: Neuroprotective activity against H202 induced oxidative stress in human SH-SY5Y cells measured after 1 hr by DCFH-DA staining based analysis

By IC50 is commonly meant the concentration that inhibits the measured activity by half. The low end stands for higher potency, the high end for lower potency. Consider `CC(Oc1cc(Cl)cc(Cl)c1)c1nc(N)nc(N2CCN(C)CC2)n1` (stereo not drawn), for which, on Acetylcholinesterase, the IC50 was 3950 nM.

With `CCC(Oc1cc(Cl)ccc1Cl)c1nc(N)nc(N2CCN(C)CC2)n1` (stereo not drawn), the IC50 came out at 81300 nM in the assay on SH-SY5Y, 7400 nM in the assay with HepG2 and 11200 nM at Acetylcholinesterase.

On Acetylcholinesterase, `CC(Oc1ccc(Cl)c(Cl)c1)c1nc(N)nc(N2CCN(C)CC2)n1` (stereo not drawn) gave an IC50 of 9520 nM.

Turning to `CCCCC(Oc1cccc(Cl)c1Cl)c1nc(N)nc(N2CCN(C)CC2)n1` (stereo not drawn), the IC50 with SH-SY5Y amounted to 29900 nM; in the assay on HepG2, 13200 nM; against Cholinesterase it was 500 nM.

A word on the Ki: it is a measure of affinity in units of concentration, obtained from inhibition or displacement. A higher Ki goes with weaker binding. Turning to `CN1CCN(c2nc(N)nc(C(C)(C)Sc3ccccc3Cl)n2)CC1`, the Ki came out at 727 nM at D(2) dopamine receptor, 476 nM in assay [1], 5920 nM in [2] and 892 nM in assay [3].

As for `CN1CCN(c2nc(N)nc(C(C)(C)Oc3ccccc3Cl)n2)CC1`, the Ki on D(2) dopamine receptor stood at 797 nM; in assay [1], 79 nM; in assay [2], 5630 nM; in [3], 573 nM.

As usually defined, the Emax is the greatest response seen or fitted, relative to the assay's reference. The molecule `COc1ccc(NS(=O)(=O)c2ccc(I)cc2)cc1N1CCN(C)CC1` showed an Emax in [4] of 100%.

As to `CCC(Sc1ccccc1)c1nc(N)nc(N2CCN(C)CC2)n1` (racemic), the Ki at D(2) dopamine receptor stood at 7270 nM; in assay [1] it was 127 nM; in [2], 2470 nM; in [3] it was 427 nM.

As to `CC(Sc1cc(Cl)ccc1Cl)c1nc(N)nc(N2CCN(C)CC2)n1` (racemic), the values for the Ki (at D(2) dopamine receptor; in [1]; in assay [2]) were 4780 nM, 169 nM and 61000 nM, respectively. For the same molecule, on Acetylcholinesterase, the IC50 turned out to be 9190 nM.

Turning to `CCC(Sc1cccc(Cl)c1Cl)c1nc(N)nc(N2CCNCC2)n1` (racemic), the Ki was determined as 3320 nM in [2] and 115 nM in assay [3].

On to `CC(Sc1ccc(Cl)c(Cl)c1)c1nc(N)nc(N2CCN(C)CC2)n1` (racemic), for which the Ki was 530 nM on D(2) dopamine receptor, 152 nM in assay [1] and 2870 nM in [2].

For the molecule `CCC(Sc1ccc(Cl)c(Cl)c1)c1nc(N)nc(N2CCN(C)CC2)n1` (racemic), the IC50 came to 15000 nM against Cholinesterase and 4570 nM at Acetylcholinesterase. For the same molecule, the Ki worked out at 897 nM at D(2) dopamine receptor, 181 nM in assay [1], 5160 nM in assay [2] and 547 nM in [3].

Regarding `CCCC(Sc1cc(Cl)cc(Cl)c1)c1nc(N)nc(N2CCN(C)CC2)n1` (racemic), the Ki at D(2) dopamine receptor turned out to be 663 nM; in assay [1] it was 74 nM; in [2] it was 8630 nM; in assay [3], 500 nM.

Turning to `CCC(Oc1cccc(Cl)c1Cl)c1nc(N)nc(N2CCNCC2)n1` (racemic), half-maximal inhibition at Cholinesterase (IC50) required 10000 nM. The Ki worked out at 179 nM in [1], 4510 nM in assay [2] and 118 nM in assay [3].

On Cholinesterase, `CCC(Sc1cc(Cl)cc(Cl)c1)c1nc(N)nc(N2CCN(C)CC2)n1` (racemic) yielded an IC50 of 9800 nM. Also, the Ki on D(2) dopamine receptor is 362 nM; in [1], 103 nM; in assay [2] it was 6040 nM; in assay [3], 178 nM.

Take `CCCC(Sc1cc(Cl)ccc1Cl)c1nc(N)nc(N2CCN(C)CC2)n1` (racemic): the Ki worked out at 971 nM at D(2) dopamine receptor, 9 nM in [1] and 6210 nM in assay [2].

As for `CCC(Oc1ccccc1)c1nc(N)nc(N2CCNCC2)n1` (racemic), the half-maximal inhibitory concentration (IC50) with SH-SY5Y was found to be 42100 nM; in the assay on HepG2, 20 nM. Further, the Ki was 414 nM in [1], 8150 nM in assay [2] and 4820 nM in assay [3].

At Cholinesterase, `CCCCC(Sc1cccc(Cl)c1Cl)c1nc(N)nc(N2CCN(C)CC2)n1` (racemic) showed an IC50 of 9950 nM. For the same molecule, the results for the Ki in [1], in assay [2] and in [3] were 169 nM, 1800 nM and 179 nM, respectively.

In the case of `CCC(Oc1cc(Cl)ccc1Cl)c1nc(N)nc(N2CCNCC2)n1` (racemic), the Ki in assay [2] turned out to be 3720 nM; in assay [3], 62 nM.

`CCC(Sc1cc(Cl)ccc1Cl)c1nc(N)nc(N2CCNCC2)n1` (racemic): the Ki in assay [2] was 5670 nM; in assay [3], 188 nM.

On Cholinesterase, `CCC(Sc1cc(Cl)ccc1Cl)c1nc(N)nc(N2CCN(C)CC2)n1` (racemic) registered an IC50 of 12100 nM. The inhibition constant (Ki) came out at 1000 nM on D(2) dopamine receptor, 5140 nM in assay [2] and 551 nM in assay [3].

On to `CCC(Sc1cccc(Cl)c1Cl)c1nc(N)nc(N2CCN(C)CC2)n1` (racemic), for which the Ki on D(2) dopamine receptor stood at 879 nM; in assay [2], 2560 nM; in assay [3], 2150 nM.

For the molecule `CC(Sc1cc(Cl)cc(Cl)c1)c1nc(N)nc(N2CCN(C)CC2)n1` (racemic), the Ki on D(2) dopamine receptor was 362 nM; in [1] it was 103 nM; in assay [2], 6040 nM; in assay [3] it was 178 nM. Also, the IC50 against Acetylcholinesterase was found to be 5370 nM.

Molecule `CC(=O)Oc1ccccc1C(=O)O` [ASPIRIN] came in with an IC50 in the assay “cells” of 17400 nM. This counts as double-digit micromolar.
